# Assay results: the kinase profiling compilation of Christmann-Franck et al. (2016)
# Columns and labels:
# Assay in all cases: KINOMEscan competition binding
# Details in all cases: compound 10.0 µM
# MAPK14 (human) = MAPK14 (human) (UniProt Q16539)
# RIPK2 (human) = RIPK2 (human) (UniProt O43353)
# MAPK12 (human) = MAPK12 (human) (UniProt P53778)
# DSTYK (human) = DSTYK (human) (UniProt Q6XUX3)
# [1] = target: TYK2 JH2 pseudokinase (human) (UniProt P29597)
# TGFBR1 (human) = TGFBR1 (human) (UniProt P36897)
# MAPK13 (human) = MAPK13 (human) (UniProt O15264)
# ADCK3 (human) = ADCK3 (human) (UniProt Q8NI60)
# ACVR1 (human) = ACVR1 (human) (UniProt Q04771)
# MAP3K7 (human) = MAP3K7 (human) (UniProt O43318)
# PDPK1 (human) = PDPK1 (human) (UniProt O15530)
# STK35 (human) = STK35 (human) (UniProt Q8TDR2)
# CLK2 (human) = CLK2 (human) (UniProt P49760)
# AURKB (human) = AURKB (human) (UniProt Q96GD4)
# MINK1 (human) = MINK1 (human) (UniProt Q8N4C8)
# KIT (human) = KIT (human) (UniProt P10721)
# TIE1 (human) = TIE1 (human) (UniProt P35590)
# SRMS (human) = SRMS (human) (UniProt Q9H3Y6)
# STK10 (human) = STK10 (human) (UniProt O94804)
# IRAK1 (human) = IRAK1 (human) (UniProt P51617)
# PIK3CB (human) = PIK3CB (human) (UniProt P42338)
# DYRK1A (human) = DYRK1A (human) (UniProt Q13627)
# [2] = test system: FLT3 (human), P36888 [R834Q]
# STK3 (human) = STK3 (human) (UniProt Q13188)
# MTOR (human) = MTOR (human) (UniProt P42345)
# ERBB2 (human) = ERBB2 (human) (UniProt P04626)
# LIMK2 (human) = LIMK2 (human) (UniProt P53671)
# RPS6KA5 KD1 (human) = RPS6KA5 KD1 (human) (UniProt O75582)
# [3] = test system: MET (human), P08581 [Y1235D]
# OXSR1 (human) = OXSR1 (human) (UniProt O95747)
# TYRO3 (human) = TYRO3 (human) (UniProt Q06418)
# TLK2 (human) = TLK2 (human) (UniProt Q86UE8)
# PRPF4B (human) = PRPF4B (human) (UniProt Q13523)
# HIPK4 (human) = HIPK4 (human) (UniProt Q8NE63)
# RIOK3 (human) = RIOK3 (human) (UniProt O14730)
# PAK7 (human) = PAK7 (human) (UniProt Q9P286)
# HCK (human) = HCK (human) (UniProt P08631)
# [4] = test system: KIT (human), P10721 [L576P]
# GAK (human) = GAK (human) (UniProt O14976)
# MARK2 (human) = MARK2 (human) (UniProt Q7KZI7)
# Chain of MAP3K7 (human) (O43318 whole entry, looked up): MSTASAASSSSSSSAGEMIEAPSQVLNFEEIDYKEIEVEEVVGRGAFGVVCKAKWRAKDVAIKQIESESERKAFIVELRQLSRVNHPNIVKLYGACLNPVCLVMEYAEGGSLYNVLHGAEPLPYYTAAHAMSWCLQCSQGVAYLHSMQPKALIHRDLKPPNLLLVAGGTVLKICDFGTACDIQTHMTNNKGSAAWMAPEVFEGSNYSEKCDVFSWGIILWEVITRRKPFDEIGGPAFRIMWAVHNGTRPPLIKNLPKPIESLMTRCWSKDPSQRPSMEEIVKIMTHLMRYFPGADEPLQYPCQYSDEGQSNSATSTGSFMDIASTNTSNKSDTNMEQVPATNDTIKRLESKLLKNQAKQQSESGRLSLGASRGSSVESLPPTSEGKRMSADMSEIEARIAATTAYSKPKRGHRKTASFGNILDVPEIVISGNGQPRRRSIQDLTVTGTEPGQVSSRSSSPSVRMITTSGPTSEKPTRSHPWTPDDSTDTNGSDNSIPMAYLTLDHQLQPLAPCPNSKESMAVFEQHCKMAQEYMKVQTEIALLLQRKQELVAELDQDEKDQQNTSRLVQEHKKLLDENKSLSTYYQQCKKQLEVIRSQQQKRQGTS
# Chain of IRAK1 (human) (P51617 whole entry, looked up): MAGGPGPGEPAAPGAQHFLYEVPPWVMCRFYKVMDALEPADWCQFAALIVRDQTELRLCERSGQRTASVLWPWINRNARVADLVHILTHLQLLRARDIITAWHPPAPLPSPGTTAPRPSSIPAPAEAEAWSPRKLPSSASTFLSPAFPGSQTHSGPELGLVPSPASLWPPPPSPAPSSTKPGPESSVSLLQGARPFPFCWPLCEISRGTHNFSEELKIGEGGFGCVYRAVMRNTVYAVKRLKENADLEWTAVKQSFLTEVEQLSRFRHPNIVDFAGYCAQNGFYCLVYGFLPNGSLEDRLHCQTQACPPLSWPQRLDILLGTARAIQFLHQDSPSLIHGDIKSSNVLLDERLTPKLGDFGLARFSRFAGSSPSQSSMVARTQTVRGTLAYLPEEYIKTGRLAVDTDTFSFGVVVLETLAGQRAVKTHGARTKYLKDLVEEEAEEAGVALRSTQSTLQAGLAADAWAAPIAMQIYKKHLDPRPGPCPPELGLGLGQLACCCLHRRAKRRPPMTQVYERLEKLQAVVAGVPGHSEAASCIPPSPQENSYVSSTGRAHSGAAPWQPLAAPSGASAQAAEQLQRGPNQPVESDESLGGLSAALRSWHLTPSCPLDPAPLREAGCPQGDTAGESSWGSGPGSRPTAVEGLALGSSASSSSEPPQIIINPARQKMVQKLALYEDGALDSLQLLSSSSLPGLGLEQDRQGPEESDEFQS
# Chain of PRPF4B (human) (Q13523 whole entry, looked up): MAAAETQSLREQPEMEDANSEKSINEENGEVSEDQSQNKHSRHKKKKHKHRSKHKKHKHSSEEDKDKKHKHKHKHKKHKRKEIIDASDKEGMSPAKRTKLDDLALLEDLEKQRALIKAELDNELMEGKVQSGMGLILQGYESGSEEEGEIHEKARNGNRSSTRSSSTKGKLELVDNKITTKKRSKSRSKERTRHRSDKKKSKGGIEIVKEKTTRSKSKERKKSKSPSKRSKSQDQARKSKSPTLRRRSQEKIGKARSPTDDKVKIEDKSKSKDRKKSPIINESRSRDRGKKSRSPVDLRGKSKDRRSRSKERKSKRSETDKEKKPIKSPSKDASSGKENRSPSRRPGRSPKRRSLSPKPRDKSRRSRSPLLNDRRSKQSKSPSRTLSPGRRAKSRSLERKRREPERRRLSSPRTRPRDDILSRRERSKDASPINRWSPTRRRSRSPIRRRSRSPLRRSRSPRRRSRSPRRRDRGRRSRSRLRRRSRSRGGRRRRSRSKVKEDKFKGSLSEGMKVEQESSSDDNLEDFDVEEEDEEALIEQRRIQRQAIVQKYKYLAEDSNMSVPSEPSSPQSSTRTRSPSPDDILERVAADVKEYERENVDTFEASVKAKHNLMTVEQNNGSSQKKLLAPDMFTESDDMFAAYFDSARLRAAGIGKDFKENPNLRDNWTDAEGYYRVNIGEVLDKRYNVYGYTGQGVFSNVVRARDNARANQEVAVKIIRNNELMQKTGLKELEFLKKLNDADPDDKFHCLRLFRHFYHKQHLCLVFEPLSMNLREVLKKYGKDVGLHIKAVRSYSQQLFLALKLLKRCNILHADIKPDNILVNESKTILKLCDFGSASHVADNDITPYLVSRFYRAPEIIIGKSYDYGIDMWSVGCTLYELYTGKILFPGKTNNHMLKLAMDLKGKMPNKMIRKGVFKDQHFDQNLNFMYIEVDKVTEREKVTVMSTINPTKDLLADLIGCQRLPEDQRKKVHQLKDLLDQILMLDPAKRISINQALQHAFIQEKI
# Chain of ADCK3 (human) (Q8NI60 whole entry, looked up): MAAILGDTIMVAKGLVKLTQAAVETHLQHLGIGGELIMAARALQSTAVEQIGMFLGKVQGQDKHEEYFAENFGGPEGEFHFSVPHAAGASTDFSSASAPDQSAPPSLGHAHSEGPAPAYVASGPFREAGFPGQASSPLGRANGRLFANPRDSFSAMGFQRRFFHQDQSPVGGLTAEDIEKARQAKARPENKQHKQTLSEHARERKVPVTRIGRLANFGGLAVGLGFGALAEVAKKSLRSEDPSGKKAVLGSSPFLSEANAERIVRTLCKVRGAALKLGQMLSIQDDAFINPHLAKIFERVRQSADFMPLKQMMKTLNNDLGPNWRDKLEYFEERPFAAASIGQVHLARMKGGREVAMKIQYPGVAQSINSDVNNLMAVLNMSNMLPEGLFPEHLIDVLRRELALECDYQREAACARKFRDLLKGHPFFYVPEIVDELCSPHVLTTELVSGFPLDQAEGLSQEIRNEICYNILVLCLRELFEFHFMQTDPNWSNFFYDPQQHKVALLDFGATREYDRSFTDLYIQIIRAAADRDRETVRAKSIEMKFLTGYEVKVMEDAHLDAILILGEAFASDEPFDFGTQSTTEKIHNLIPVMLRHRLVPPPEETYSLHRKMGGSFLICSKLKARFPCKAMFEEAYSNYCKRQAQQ
# Chain of AURKB (human) (Q96GD4 whole entry, looked up): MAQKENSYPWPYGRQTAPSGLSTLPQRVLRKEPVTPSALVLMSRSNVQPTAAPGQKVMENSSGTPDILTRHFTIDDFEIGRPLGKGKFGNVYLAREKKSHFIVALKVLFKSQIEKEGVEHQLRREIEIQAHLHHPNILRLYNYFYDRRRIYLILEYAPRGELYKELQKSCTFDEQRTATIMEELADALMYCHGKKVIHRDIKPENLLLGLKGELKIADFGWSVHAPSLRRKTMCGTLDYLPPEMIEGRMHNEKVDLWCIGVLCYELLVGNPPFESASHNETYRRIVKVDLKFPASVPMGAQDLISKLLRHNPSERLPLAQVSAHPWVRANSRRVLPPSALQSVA
# Chain of MAPK14 (human) (Q16539 whole entry, looked up): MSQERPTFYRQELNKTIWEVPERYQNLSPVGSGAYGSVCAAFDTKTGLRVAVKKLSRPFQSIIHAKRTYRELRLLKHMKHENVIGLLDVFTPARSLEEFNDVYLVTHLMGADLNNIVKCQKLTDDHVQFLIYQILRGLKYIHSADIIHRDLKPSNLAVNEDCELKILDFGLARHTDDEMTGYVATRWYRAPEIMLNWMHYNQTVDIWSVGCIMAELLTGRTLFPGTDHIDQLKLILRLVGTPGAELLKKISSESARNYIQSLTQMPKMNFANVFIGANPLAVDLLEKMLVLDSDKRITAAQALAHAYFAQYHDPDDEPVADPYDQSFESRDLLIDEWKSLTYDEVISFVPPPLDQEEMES
# Chain of RIOK3 (human) (O14730 whole entry, looked up): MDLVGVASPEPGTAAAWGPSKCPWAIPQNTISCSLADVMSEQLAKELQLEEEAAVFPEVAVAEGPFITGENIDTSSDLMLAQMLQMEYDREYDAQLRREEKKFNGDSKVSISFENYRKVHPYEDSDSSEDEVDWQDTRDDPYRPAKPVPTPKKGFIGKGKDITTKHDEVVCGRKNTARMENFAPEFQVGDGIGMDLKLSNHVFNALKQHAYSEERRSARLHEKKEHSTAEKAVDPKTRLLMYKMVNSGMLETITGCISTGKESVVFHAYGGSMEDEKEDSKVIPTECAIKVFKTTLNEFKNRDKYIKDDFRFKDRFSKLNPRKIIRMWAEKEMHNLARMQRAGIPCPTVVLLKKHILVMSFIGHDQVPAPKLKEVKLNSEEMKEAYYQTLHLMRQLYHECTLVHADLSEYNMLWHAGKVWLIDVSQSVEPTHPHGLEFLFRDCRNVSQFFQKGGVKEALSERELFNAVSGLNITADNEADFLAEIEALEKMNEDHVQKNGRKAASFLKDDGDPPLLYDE
# Chain of RPS6KA5 KD1 (human) (O75582 whole entry, looked up): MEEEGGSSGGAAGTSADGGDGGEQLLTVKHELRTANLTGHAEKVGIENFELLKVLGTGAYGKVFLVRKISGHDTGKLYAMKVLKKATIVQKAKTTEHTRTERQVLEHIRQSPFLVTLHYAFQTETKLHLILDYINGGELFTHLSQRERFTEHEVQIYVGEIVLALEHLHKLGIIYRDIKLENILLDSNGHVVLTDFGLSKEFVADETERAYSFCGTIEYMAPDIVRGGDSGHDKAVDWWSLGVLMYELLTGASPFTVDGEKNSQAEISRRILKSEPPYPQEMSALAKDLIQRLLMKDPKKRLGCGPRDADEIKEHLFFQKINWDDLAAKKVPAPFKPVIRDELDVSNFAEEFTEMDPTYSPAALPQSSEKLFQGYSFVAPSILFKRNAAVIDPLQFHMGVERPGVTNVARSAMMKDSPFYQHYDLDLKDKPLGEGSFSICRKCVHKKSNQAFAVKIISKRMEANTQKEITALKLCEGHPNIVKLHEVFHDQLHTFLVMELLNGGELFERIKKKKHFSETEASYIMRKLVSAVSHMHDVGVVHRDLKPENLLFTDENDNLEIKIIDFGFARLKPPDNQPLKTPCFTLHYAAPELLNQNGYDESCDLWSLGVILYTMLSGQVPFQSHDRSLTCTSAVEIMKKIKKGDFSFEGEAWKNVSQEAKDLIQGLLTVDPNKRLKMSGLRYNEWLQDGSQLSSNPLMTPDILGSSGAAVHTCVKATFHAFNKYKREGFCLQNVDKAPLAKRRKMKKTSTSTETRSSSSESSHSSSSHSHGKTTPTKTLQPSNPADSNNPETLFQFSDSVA
Compound,"kinase still bound, per cent of control (MAPK14 (human)) [%]","kinase still bound, per cent of control (RIPK2 (human)) [%]","kinase still bound, per cent of control (MAPK12 (human)) [%]","kinase still bound, per cent of control (DSTYK (human)) [%]","kinase still bound, per cent of control [1] [%]","kinase still bound, per cent of control (TGFBR1 (human)) [%]","kinase still bound, per cent of control (MAPK13 (human)) [%]","kinase still bound, per cent of control (ADCK3 (human)) [%]","kinase still bound, per cent of control (ACVR1 (human)) [%]","kinase still bound, per cent of control (MAP3K7 (human)) [%]","kinase still bound, per cent of control (PDPK1 (human)) [%]","kinase still bound, per cent of control (STK35 (human)) [%]","kinase still bound, per cent of control (CLK2 (human)) [%]","kinase still bound, per cent of control (AURKB (human)) [%]","kinase still bound, per cent of control (MINK1 (human)) [%]","kinase still bound, per cent of control (KIT (human)) [%]","kinase still bound, per cent of control (TIE1 (human)) [%]","kinase still bound, per cent of control (SRMS (human)) [%]","kinase still bound, per cent of control (STK10 (human)) [%]","kinase still bound, per cent of control (IRAK1 (human)) [%]",other results
COc1ccc(N(C(=O)Oc2c(C)cccc2C)c2ccnc(Nc3ccc(N4CCN(C)CC4)cc3)n2)c(OC)c1,52,0,75,49,100,0.75,100,26,0,57,82,24,78,18,14,0.45,5.8,8.6,0,19,"kinase still bound, per cent of control (PIK3CB (human)): 100%; kinase still bound, per cent of control (DYRK1A (human)): 75%; kinase still bound, per cent of control [2]: 26%; kinase still bound, per cent of control (STK3 (human)): 23%; kinase still bound, per cent of control (MTOR (human)): 100%; kinase still bound, per cent of control (ERBB2 (human)): 15%; kinase still bound, per cent of control (LIMK2 (human)): 0%; kinase still bound, per cent of control (RPS6KA5 KD1 (human)): 100%; kinase still bound, per cent of control [3]: 1.6%; kinase still bound, per cent of control (OXSR1 (human)): 93%; kinase still bound, per cent of control (TYRO3 (human)): 18%; kinase still bound, per cent of control (TLK2 (human)): 76%; kinase still bound, per cent of control (PRPF4B (human)): 55%; kinase still bound, per cent of control (HIPK4 (human)): 8.8%; kinase still bound, per cent of control (RIOK3 (human)): 5.1%; kinase still bound, per cent of control (PAK7 (human)): 82%; kinase still bound, per cent of control (HCK (human)): 0.15%; kinase still bound, per cent of control [4]: 1%; kinase still bound, per cent of control (GAK (human)): 5.6%; kinase still bound, per cent of control (MARK2 (human)): 87%"
CCN1CCN(C(=O)Cc2ccc(Nc3ncc(F)c(Nc4ccc(C(=O)Nc5ccccc5Cl)cc4)n3)cc2)CC1,97,19,100,71,12,57,100,43,13,2.9,96,91,4.9,14,57,1,10,58,3.4,22,"kinase still bound, per cent of control (PIK3CB (human)): 83%; kinase still bound, per cent of control (DYRK1A (human)): 47%; kinase still bound, per cent of control [2]: 36%; kinase still bound, per cent of control (STK3 (human)): 100%; kinase still bound, per cent of control (MTOR (human)): 20%; kinase still bound, per cent of control (ERBB2 (human)): 100%; kinase still bound, per cent of control (LIMK2 (human)): 30%; kinase still bound, per cent of control (RPS6KA5 KD1 (human)): 100%; kinase still bound, per cent of control [3]: 23%; kinase still bound, per cent of control (OXSR1 (human)): 100%; kinase still bound, per cent of control (TYRO3 (human)): 79%; kinase still bound, per cent of control (TLK2 (human)): 33%; kinase still bound, per cent of control (PRPF4B (human)): 18%; kinase still bound, per cent of control (HIPK4 (human)): 2.4%; kinase still bound, per cent of control (RIOK3 (human)): 0.2%; kinase still bound, per cent of control (PAK7 (human)): 56%; kinase still bound, per cent of control (HCK (human)): 84%; kinase still bound, per cent of control [4]: 3.2%; kinase still bound, per cent of control (GAK (human)): 5.7%; kinase still bound, per cent of control (MARK2 (human)): 50%"
COc1cc2ncnc(-n3nc(-c4ccccn4)nc3N)c2cc1OC,50,2.6,21,19,0,14,100,10,0.2,15,90,24,1.8,0.4,40,10,93,27,12,2.8,"kinase still bound, per cent of control (PIK3CB (human)): 5%; kinase still bound, per cent of control (DYRK1A (human)): 0.1%; kinase still bound, per cent of control [2]: 22%; kinase still bound, per cent of control (STK3 (human)): 54%; kinase still bound, per cent of control (MTOR (human)): 5%; kinase still bound, per cent of control (ERBB2 (human)): 93%; kinase still bound, per cent of control (LIMK2 (human)): 20%; kinase still bound, per cent of control (RPS6KA5 KD1 (human)): 84%; kinase still bound, per cent of control [3]: 40%; kinase still bound, per cent of control (OXSR1 (human)): 42%; kinase still bound, per cent of control (TYRO3 (human)): 63%; kinase still bound, per cent of control (TLK2 (human)): 40%; kinase still bound, per cent of control (PRPF4B (human)): 93%; kinase still bound, per cent of control (HIPK4 (human)): 6%; kinase still bound, per cent of control (RIOK3 (human)): 32%; kinase still bound, per cent of control (PAK7 (human)): 63%; kinase still bound, per cent of control (HCK (human)): 12%; kinase still bound, per cent of control [4]: 4.5%; kinase still bound, per cent of control (GAK (human)): 2.6%; kinase still bound, per cent of control (MARK2 (human)): 53%"
